# Source: publication PMC7765321, “Novel Isoniazid-Carborane Hybrids Active In Vitro against Mycobacterium tuberculosis” (Pharmaceuticals, 2020)
# What was measured:
# [1] = tested on: Mtb H37Rv strain; experiment: microbe, parasite or virus in culture; format: cell-based; conditions: for MIC50: concentration exhibiting 50% inhibition of mycobacterial growth; for MIC50 / MIC99: wild-type Mtb H37Rv, 96 h; for MIC99: concentration exhibiting 99% inhibition of mycobacterial growth
# [2] = tested on: HaCaT cells
# [3] = Partition (P) and distribution (D) coefficient, shake-flask octan-1-ol/water or PBS
# [4] = for permeation compared to INH (4): PAMPA; for PAMPA log Pe: PBS pH 7.4, 18 h, RT, Pe in cm/s
# [5] = tested on: HaCaT cells; remark: listed apart in the source
# [6] = in vitro; conditions: PAMPA, pH 7.4
# [7] = Determination of the CC50 value (MTT assay); conditions: human, HaCaT cells (immortalized keratinocytes)
# [8] = tested on: Mtb; set-up: method as in PMID 28390957; conditions: against Mtb; cited from earlier work
# [9] = tested on: HaCaT cells; conditions: 24 h at MIC50 and MIC99 values for the Mtb strain
# [10] = octan-1-ol/water, shake-flask, RT
Compound,MIC50 [1],MIC99 [1],CC50 [2],"log P [3, 10]",permeation compared to INH (4) [4],PAMPA log Pe [4],also measured
"N′-((1,12-dicarba-closo-dodecaboran-1-yl)methylidene)isonicotinohydrazide [Compound 15]",10.30 µM,17.20 µM,305 ± 6.11 µM,2.28 ± 0.20,three orders of magnitude higher,−3.90 ± 0.17,–
"N′-((1,12-dicarba-closo-dodecaboran-1-yl)propanoyl)isonicotinohydrazide [Compound 10]",29.80 µM,74.50 µM,161 ± 3.89 µM,0.99 ± 0.07,two orders of magnitude higher,−4.65 ± 0.09,–
"N′-((1,7-dicarba-closo-dodecaboran-1-yl)propanoyl)isonicotinohydrazide [Compound 9]",22.40 µM,74.50 µM,290.6 ± 1.45 µM,1.11 ± 0.11,one order of magnitude higher,−5.09 ± 0.07,cytotoxicity / cell viability (MTT) ([5]; 24 h at MIC50 and MIC99 values for the ΔkatG strain): did not cause severe cytotoxicity
"N′-((7,8-dicarba-nido-undecaboranyl)methylidene)isonicotinohydrazide [Compound 16]",0.16 µM,0.33 µM,249.4 ± 0.56 µM,–,one order of magnitude higher,−5.05 ± 0.30,"log D7.4 ([3]; octan-1-ol/PBS, shake-flask, RT): 0.67 ± 0.04"
"N′-((1,12-dicarba-closo-dodecaboran-1-yl)ethylidene)isonicotinohydrazide [Compound 22]",0.16 µM,1.60 µM,80.2 ± 3.81 µM,1.30 ± 0.07,two orders of magnitude higher,−4.13 ± 0.07,–
"NNC(=O)c1ccncc1 [4 (INH), pyridine-4-carbohydrazide, reference compound]",–,–,–,–,–,–,Papp at 18 h [6]: 0.617 ×10⁻⁶ cm/s; MIC50 ([1]; Mycobacterium tuberculosis): 0.073 µM; MIC99 ([1]; Mycobacterium tuberculosis): 0.36 µM; CC50 [7]: 725.8 ± 2.36 µM; MIC [8]: 0.20 µg/mL; logP at 0.5 h ([3]; octan-1-ol/water): -1 ± 0.09
"1,12-dicarba-closo-dodecaborane-1-carboxylic acid hydrazide [Compound 3]",–,–,–,–,–,–,growth inhibition of Mtb ([1]; at 75 µg/mL (0.37 mM)): not considerably inhibited
"N′-((1,2-dicarba-closo-dodecaboran-1-yl)ethylidene)isonicotinohydrazide [Compound 20]",0.082 µM,1.60 µM,81.5 ± 7.23 µM,1.26 ± 0.22,one order of magnitude higher,−5.05 ± 0.09,–
"N′-((1,7-dicarba-closo-dodecaboran-1-yl)ethyl)isonicotinohydrazide [Compound 24]",0.81 µM,3.25 µM,105 ± 6.13 µM,0.66 ± 0.08,two orders of magnitude higher,−4.85 ± 0.06,–
"N′-((1,7-dicarba-closo-dodecaboran-1-yl)ethylidene)isonicotinohydrazide [Compound 21]",0.16 µM,0.82 µM,78.23 ± 0.71 µM,1.66 ± 0.18,two orders of magnitude higher,−4.40 ± 0.10,–
"N′-((1,2-dicarba-closo-dodecaboran-1-yl)ethyl)isonicotinohydrazide [Compound 23]",1.60 µM,4.90 µM,86.5 ± 4.59 µM,0.64 ± 0.09,two orders of magnitude higher,−4.16 ± 0.05,–
"N′-((1,7-dicarba-closo-dodecaboran-1-yl)methylidene)isonicotinohydrazide [Compound 14]",0.86 µM,3.40 µM,131 ± 3.46 µM,2.03 ± 0.09,two orders of magnitude higher,−4.06 ± 0.09,–
"N′-((1,12-dicarba-closo-dodecaboran-1-yl)ethyl)isonicotinohydrazide [Compound 25]",0.32 µM,6.50 µM,–,1.15 ± 0.14,two orders of magnitude higher,−4.37 ± 0.04,–
"N′-((1,2-dicarba-closo-dodecaboran-1-yl)propanoyl)isonicotinohydrazide [Compound 8]",44.70 µM,100 µM,86.6 ± 3.63 µM,0.67 ± 0.07,two orders of magnitude higher,−4.98 ± 0.12,apoptotic/necrotic cells [9]: 16.45%; viable cells (MTT) ([5]; 24 h at concentration consistent with MIC99 for wild-type Mtb): 50%
